# ChEMBL document CHEMBL3102761, “Discovery of Clinical Candidate GSK1842799 As a Selective S1P1 Receptor Agonist (Prodrug) for Multiple Sclerosis” (ACS Med Chem Lett, 2013)
# Active and inactive are the calls of the source. No cut-off for these calls is given here.
# Columns and labels:
# [1] = target: T1, Sphingosine 1-phosphate receptor 3 (Homo sapiens, UniProt Q99500); assay: Agonist activity at S1P3R (unknown origin) assessed as [33P] binding activity
# Target sequence in this assay (Q99500 whole entry, looked up): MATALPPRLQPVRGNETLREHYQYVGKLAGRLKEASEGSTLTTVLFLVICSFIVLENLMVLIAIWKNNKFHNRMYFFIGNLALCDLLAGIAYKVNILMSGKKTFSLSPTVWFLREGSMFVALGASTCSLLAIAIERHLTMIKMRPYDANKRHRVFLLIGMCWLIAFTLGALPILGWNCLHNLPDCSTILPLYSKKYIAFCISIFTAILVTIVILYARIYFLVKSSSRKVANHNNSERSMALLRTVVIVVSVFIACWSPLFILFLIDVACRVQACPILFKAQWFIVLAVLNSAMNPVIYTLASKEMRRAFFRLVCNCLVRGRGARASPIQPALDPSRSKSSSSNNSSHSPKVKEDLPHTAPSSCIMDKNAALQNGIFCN
# [2] = target: Sphingosine 1-phosphate receptor 5 (Homo sapiens, UniProt Q9H228); assay: Agonist activity at human S1P5R expressed in HEK293T cells assessed as [35S]GTPgammaS binding after 30 mins by scintillation counting; type: functional, cell-based, HEK-293T
# Sequence of Sphingosine 1-phosphate receptor 5 (Q9H228 whole entry): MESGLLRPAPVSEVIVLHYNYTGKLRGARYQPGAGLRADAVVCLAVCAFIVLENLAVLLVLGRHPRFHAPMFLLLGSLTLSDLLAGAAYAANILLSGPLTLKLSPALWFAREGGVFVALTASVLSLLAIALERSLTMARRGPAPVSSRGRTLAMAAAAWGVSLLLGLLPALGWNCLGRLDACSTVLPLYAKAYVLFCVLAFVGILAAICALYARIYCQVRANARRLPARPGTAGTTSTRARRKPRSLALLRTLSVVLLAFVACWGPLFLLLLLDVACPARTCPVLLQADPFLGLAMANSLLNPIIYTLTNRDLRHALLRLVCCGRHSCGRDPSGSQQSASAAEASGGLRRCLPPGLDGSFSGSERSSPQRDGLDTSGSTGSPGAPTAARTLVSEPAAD
# [3] = target: T2, Sphingosine 1-phosphate receptor 1 (Homo sapiens, UniProt P21453); assay: Agonist activity at S1P1R (unknown origin) assessed as [33P] binding activity
# T2 sequence (P21453 whole entry): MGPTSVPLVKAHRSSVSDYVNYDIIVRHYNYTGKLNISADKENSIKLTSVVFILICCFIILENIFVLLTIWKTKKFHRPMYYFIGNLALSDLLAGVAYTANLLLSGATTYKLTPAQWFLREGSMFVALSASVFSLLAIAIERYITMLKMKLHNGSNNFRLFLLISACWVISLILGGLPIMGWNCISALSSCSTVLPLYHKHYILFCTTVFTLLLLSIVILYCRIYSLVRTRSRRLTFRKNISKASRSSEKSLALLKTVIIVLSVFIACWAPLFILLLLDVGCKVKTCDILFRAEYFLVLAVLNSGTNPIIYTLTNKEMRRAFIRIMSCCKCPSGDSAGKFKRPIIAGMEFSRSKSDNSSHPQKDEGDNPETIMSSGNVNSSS
# Homo sapiens [4] = organism: Homo sapiens; assay: Selectivity ratio for S1P3R (unknown origin) to S1P1R (unknown origin)
# Homo sapiens [5] = organism: Homo sapiens; assay: Selectivity ratio of EC50 for S1P3R (unknown origin) to EC50 for S1P1R (unknown origin)
# Mus musculus [6] = assay: Induction of lymphopenia in C57BL/6 mouse at 10 mg/kg, po at 6 hrs post-dose
# [7] = target: T3, Sphingosine 1-phosphate receptor 4 (Homo sapiens, UniProt O95977); assay: Agonist activity at human S1P4R expressed in HEK293T cells assessed as [35S]GTPgammaS binding after 30 mins by scintillation counting; type: functional, cell-based, HEK-293T
# T3 sequence (O95977 whole entry): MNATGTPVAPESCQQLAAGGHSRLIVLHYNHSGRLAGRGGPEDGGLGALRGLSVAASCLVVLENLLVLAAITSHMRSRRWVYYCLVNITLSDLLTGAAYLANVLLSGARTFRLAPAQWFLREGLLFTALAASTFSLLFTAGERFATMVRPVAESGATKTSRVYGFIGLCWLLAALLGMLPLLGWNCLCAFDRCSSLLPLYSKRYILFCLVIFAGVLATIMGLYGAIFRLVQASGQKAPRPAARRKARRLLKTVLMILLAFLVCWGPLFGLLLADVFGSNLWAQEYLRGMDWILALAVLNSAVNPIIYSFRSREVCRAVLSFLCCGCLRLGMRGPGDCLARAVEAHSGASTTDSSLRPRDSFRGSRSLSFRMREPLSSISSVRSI
# [8] = target: T1, Sphingosine 1-phosphate receptor 3; assay: Agonist activity at human S1P3R expressed in HEK293T cells assessed as [35S]GTPgammaS binding after 30 mins by scintillation counting; type: functional, cell-based, HEK-293T
# Target sequence in this assay (Q99500 whole entry): as the sequence (Q99500 whole entry, looked up) above
# [9] = target: T2, Sphingosine 1-phosphate receptor 1; assay: Agonist activity at human S1P1R expressed in HEK293T cells assessed as [35S]GTPgammaS binding after 30 mins by scintillation counting; type: functional, cell-based, HEK-293T
# Liver microsome [10] = assay: Metabolic stability in dog liver microsomes; type: ADME, Canis lupus familiaris
# Mus musculus [11] = assay: Induction of lymphopenia in C57BL/6 mouse at 0.1 mg/kg, po at 6 hrs post-dose relative to vehicle-treated control; type: functional, organism-based; set-up: dose 0.1 mg/kg
# Liver microsome [12] = assay: Metabolic stability in rat liver microsomes; type: ADME
# [13] = Aqueous solubility of the compound; type: physicochemical; settings: buffer
# [14] = Inhibition of CYP450 (unknown origin); type: ADME; settings: human
# Mus musculus [15] = assay: Reduction in clinical symptoms in MOG peptide experimental autoimmune encephalitis (EAE) mouse multiple sclerosis disease model at 3 mg/kg, po qd; type: functional, organism-based; set-up: dose 3 mg/kg
# [16] = Metabolic stability in cynomolgus monkey liver microsomes; type: ADME, Macaca fascicularis, Microsome
# Mus musculus [17] = assay: Induction of lymphopenia in po dosed C57BL/6 mouse measured at 6 hrs post-dose relative to vehicle-treated control; type: functional, organism-based
# Caco-2 = assay: Permeability across human Caco2 cells; type: ADME, cell-based
# Cynomolgus monkey = assay: Induction of […] in po dosed cynomolgus monkey; type: functional, Macaca fascicularis
# Liver microsome [18] = assay: Metabolic stability in human liver microsomes; type: ADME
# Plasma [19] = assay: Plasma concentration in dog assessed as phosphorylated compound at 5 mg/kg, po administered as single dose; type: ADME, organism-based, Canis lupus familiaris; set-up: dose 5 mg/kg, route oral; settings: in vivo
# [20] = Cmax in cynomolgus monkey at 3.8 mg/kg, po administered as single dose; type: ADME, organism-based, Macaca fascicularis; set-up: dose 3.8 mg/kg, route oral; settings: in vivo
# Plasma [21] = assay: Plasma concentration in rat assessed as phosphorylated compound at 3 mg/kg, po administered as single dose; type: ADME, organism-based; set-up: dose 3 mg/kg, route oral; settings: in vivo
# Plasma [22] = assay: Plasma concentration in cynomolgus monkey assessed as phosphorylated compound at 3.8 mg/kg, po administered as single dose; type: ADME, organism-based, Macaca fascicularis; set-up: dose 3.8 mg/kg, route oral; settings: in vivo
# Homo sapiens [23] = organism: Homo sapiens; assay: Selectivity ratio for human Sphk1 to human Sphk2
Structure (SMILES),Activity [1] [µM],Activity [3] [nM],Selectivity ratio (Homo sapiens [4]),further results
CCCCCCCCOc1ccc(-c2cnc([C@@](C)(N)COP(=O)(O)O)s2)cc1C(F)(F)F,0.3,0.18,1670,EC50 [2]: 2 nM; Ratio EC50 (Homo sapiens [5]): > 6800; Activity (Mus musculus [6]): 98%; EC50 [7]: 3.6 nM; EC50 [8]: > 3000 nM; EC50 [9]: 0.44 nM
N[C@@H](COP(=O)(O)O)c1nc(-c2ccc(OCc3ccc(-c4ccccc4)cc3)c(C(F)(F)F)c2)c[nH]1,0.65,0.3,2170,
CCCCCCCCOc1ccc(-c2cnc([C@@](C)(N)CO)s2)cc1C(F)(F)F,,,,Stability (Liver microsome [10]): Stable; Activity (Mus musculus [11]): Active; Stability (Liver microsome [12]): Stable; solubility [13]: soluble; inhibition (INH) [14]: Not Active; Activity (Mus musculus [15]): Active; Stability [16]: Stable; Activity (Mus musculus [17]): Dose-dependent effect; permeability (Caco-2): permeable
CCCCCCCCOc1ccc(-c2cc([C@@](C)(N)COP(=O)(O)O)on2)cc1C(F)(F)F,0.17,0.14,1210,
CCCCCCCCOc1ccc(-c2cnc([C@@](C)(N)COP(=O)(O)O)[nH]2)cc1C(F)(F)F,4.87,1.46,3340,
CCCCCCCCCCCCC/C=C/[C@@H](O)[C@@H](N)COP(=O)(O)O,,,,EC50 [7]: 13 nM; EC50 [8]: 3.94 nM; EC50 [9]: 4.25 nM
C[C@](N)(COP(=O)(O)O)c1nc(-c2ccc(OCc3ccc(-c4ccccc4)cc3)c(C(F)(F)F)c2)cs1,> 10,1.6,> 6250,
C[C@](N)(COP(=O)(O)O)c1nnc(-c2ccc(OCc3ccc(-c4ccccc4)cc3)c(C(F)(F)F)c2)s1,4.5,1.77,2540,
Cc1nc([C@@](C)(N)COP(=O)(O)O)[nH]c1-c1ccc(OCc2ccc(-c3ccccc3)cc2)c(C(F)(F)F)c1,7.67,0.65,11900,
C[C@](N)(COP(=O)(O)O)c1ncc(-c2ccc(OCc3ccc(-c4ccccc4)cc3)c(C(F)(F)F)c2)o1,> 10,1.1,> 8000,
CCCCCCCCOc1ccc(-c2nnc([C@@](C)(N)CO)s2)cc1C(F)(F)F,,,,Stability (Liver microsome [10]): Stable; EC90 (Cynomolgus monkey): 0.0162 µg/mL; Activity (Mus musculus [11]): Active; Stability (Liver microsome [12]): Stable; Stability (Liver microsome [18]): Stable; solubility [13]: soluble; inhibition (INH) [14]: Not Active; Activity (Mus musculus [15]): Active; Stability [16]: Stable; Cp (Plasma [19]): 10 ng/mL; Cmax [20]: 50.9 ng/mL; Cp (Plasma [21]): 10 ng/mL; Cp (Plasma [22]): 10 ng/mL; Activity (Mus musculus [17]): Dose-dependent effect; permeability (Caco-2): permeable
C[C@](N)(COP(=O)(O)O)c1nc(-c2ccc(OCc3ccc(-c4ccccc4)cc3)c(C(F)(F)F)c2)c[nH]1,7.35,0.83,8860,
CCCCCCCCOc1ccc(-c2cc([C@@](C)(N)COP(=O)(O)O)[nH]n2)cc1C(F)(F)F,> 10,0.83,> 12000,
CCCCCCCCOc1ccc(-c2nnc([C@@](C)(N)COP(=O)(O)O)s2)cc1C(F)(F)F,1.9,0.52,3290,EC50 [2]: 0.66 nM; Ratio EC50 (Homo sapiens [5]): > 11500; Activity (Mus musculus [6]): 119%; EC50 [7]: 4.57 nM; EC50 [8]: > 3000 nM; EC50 [9]: 0.26 nM
NC(CO)(COP(=O)(O)O)c1nc(-c2ccc(OCc3ccc(-c4ccccc4)cc3)c(C(F)(F)F)c2)c[nH]1 (centres undefined),> 10,2.3,> 4350,
C[C@](N)(COP(=O)(O)O)c1ncc(-c2ccc(OCc3ccc(-c4ccccc4)cc3)c(C(F)(F)F)c2)s1,0.867,0.73,1190,
CCCCCCCCOc1ccc(-c2noc([C@@](C)(N)COP(=O)(O)O)n2)cc1C(F)(F)F,> 10,1.9,> 5260,
CCCCCCCCc1ccc(CCC(N)(CO)CO)cc1,,,,Selectivity ratio (Homo sapiens [23]): 30; Activity (Mus musculus [15]): Active
CCCCCCCCOc1ccc(-c2nnc([C@@](C)(N)COP(=O)(O)O)o2)cc1C(F)(F)F,> 10,27.8,> 359,
Cc1oc([C@@](C)(N)COP(=O)(O)O)nc1-c1ccc(OCc2ccc(-c3ccccc3)cc2)c(C(F)(F)F)c1,> 10,2.1,> 5000,
